± gives the expanded uncertainty stated by the source.
Legend:
[1] = 85 kPa, Liquid; for viscosity: Concentric cylinders viscometry; for mass density: Vibrating tube method
[2] = xn = mol fraction of the nth substance listed; details: 85 kPa, Liquid; for viscosity: Concentric cylinders viscometry; for mass density: Vibrating tube method

NCCCO [3-amino-1-propanol]
viscosity ([1]; 293.15 K): 37.33 ± 2.3 mPa·s
mass density ([1]; 293.15 K): 987.8 ± 1.3 kg/m3
viscosity ([1]; 298.15 K): 28.59 ± 1.7 mPa·s
mass density ([1]; 298.15 K): 984.3 ± 1.2 kg/m3
viscosity ([1]; 303.15 K): 22.31 ± 1.4 mPa·s
mass density ([1]; 303.15 K): 980.3 ± 1.2 kg/m3
viscosity ([1]; 308.15 K): 17.67 ± 1.1 mPa·s
mass density ([1]; 308.15 K): 976.2 ± 1.2 kg/m3
viscosity ([1]; 313.15 K): 14.21 ± 0.86 mPa·s
mass density ([1]; 313.15 K): 972.3 ± 1.2 kg/m3
viscosity ([1]; 318.15 K): 11.58 ± 0.7 mPa·s
mass density ([1]; 318.15 K): 968.5 ± 1.2 kg/m3
viscosity ([1]; 323.15 K): 9.546 ± 0.58 mPa·s
mass density ([1]; 323.15 K): 964.9 ± 1.2 kg/m3

CCC(C)O (stereo not drawn) [butan-2-ol]
viscosity ([1]; 293.15 K): 3.743 ± 0.23 mPa·s
mass density ([1]; 293.15 K): 806.2 ± 1 kg/m3
viscosity ([1]; 298.15 K): 3.101 ± 0.19 mPa·s
mass density ([1]; 298.15 K): 802 ± 1 kg/m3
viscosity ([1]; 303.15 K): 2.579 ± 0.16 mPa·s
mass density ([1]; 303.15 K): 797.9 ± 1 kg/m3
viscosity ([1]; 308.15 K): 2.162 ± 0.13 mPa·s
mass density ([1]; 308.15 K): 793.6 ± 1 kg/m3
viscosity ([1]; 313.15 K): 1.828 ± 0.11 mPa·s
mass density ([1]; 313.15 K): 789.2 ± 1 kg/m3
viscosity ([1]; 318.15 K): 1.559 ± 0.094 mPa·s
mass density ([1]; 318.15 K): 784.7 ± 1 kg/m3
viscosity ([1]; 323.15 K): 1.318 ± 0.08 mPa·s
mass density ([1]; 323.15 K): 780.2 ± 1 kg/m3

CCC(C)O (stereo not drawn) [butan-2-ol] + NCCCO
viscosity ([2]; 293.15 K, x1 = 1): 3.743 ± 0.23 mPa·s
mass density ([2]; 293.15 K, x1 = 1): 806.2 ± 1 kg/m3
viscosity ([2]; 298.15 K, x1 = 1): 3.101 ± 0.19 mPa·s
mass density ([2]; 298.15 K, x1 = 1): 802 ± 1 kg/m3
viscosity ([2]; 303.15 K, x1 = 1): 2.579 ± 0.16 mPa·s
mass density ([2]; 303.15 K, x1 = 1): 797.9 ± 1 kg/m3
viscosity ([2]; 308.15 K, x1 = 1): 2.162 ± 0.13 mPa·s
mass density ([2]; 308.15 K, x1 = 1): 793.6 ± 1 kg/m3
viscosity ([2]; 313.15 K, x1 = 1): 1.828 ± 0.11 mPa·s
mass density ([2]; 313.15 K, x1 = 1): 789.2 ± 1 kg/m3
viscosity ([2]; 318.15 K, x1 = 1): 1.559 ± 0.094 mPa·s
mass density ([2]; 318.15 K, x1 = 1): 784.7 ± 1 kg/m3
viscosity ([2]; 323.15 K, x1 = 1): 1.318 ± 0.08 mPa·s
mass density ([2]; 323.15 K, x1 = 1): 780.2 ± 1 kg/m3

CCCO [propan-1-ol]
viscosity ([1]; 293.15 K): 2.215 ± 0.13 mPa·s
mass density ([1]; 293.15 K): 803.5 ± 1 kg/m3
viscosity ([1]; 298.15 K): 1.97 ± 0.12 mPa·s
mass density ([1]; 298.15 K): 799.4 ± 1 kg/m3
viscosity ([1]; 303.15 K): 1.752 ± 0.11 mPa·s
mass density ([1]; 303.15 K): 795.4 ± 1 kg/m3
viscosity ([1]; 308.15 K): 1.563 ± 0.094 mPa·s
mass density ([1]; 308.15 K): 791.3 ± 1 kg/m3
viscosity ([1]; 313.15 K): 1.399 ± 0.085 mPa·s
mass density ([1]; 313.15 K): 787.2 ± 1 kg/m3
viscosity ([1]; 318.15 K): 1.255 ± 0.076 mPa·s
mass density ([1]; 318.15 K): 783.1 ± 1 kg/m3
viscosity ([1]; 323.15 K): 1.129 ± 0.068 mPa·s
mass density ([1]; 323.15 K): 778.9 ± 1 kg/m3

CCCO [propan-1-ol] + CCC(C)O
viscosity ([2]; 293.15 K, x2 = 0): 2.215 ± 0.13 mPa·s
mass density ([2]; 293.15 K, x2 = 0): 803.5 ± 1 kg/m3
viscosity ([2]; 298.15 K, x2 = 0): 1.97 ± 0.12 mPa·s
mass density ([2]; 298.15 K, x2 = 0): 799.4 ± 1 kg/m3
viscosity ([2]; 303.15 K, x2 = 0): 1.752 ± 0.11 mPa·s
mass density ([2]; 303.15 K, x2 = 0): 795.4 ± 1 kg/m3
viscosity ([2]; 308.15 K, x2 = 0): 1.563 ± 0.094 mPa·s
mass density ([2]; 308.15 K, x2 = 0): 791.3 ± 1 kg/m3
viscosity ([2]; 313.15 K, x2 = 0): 1.399 ± 0.085 mPa·s
mass density ([2]; 313.15 K, x2 = 0): 787.2 ± 1 kg/m3
viscosity ([2]; 318.15 K, x2 = 0): 1.255 ± 0.076 mPa·s
mass density ([2]; 318.15 K, x2 = 0): 783.1 ± 1 kg/m3
viscosity ([2]; 323.15 K, x2 = 0): 1.129 ± 0.068 mPa·s
mass density ([2]; 323.15 K, x2 = 0): 778.9 ± 1 kg/m3

CC(C)O [propan-2-ol]
viscosity ([1]; 293.15 K): 2.429 ± 0.15 mPa·s
mass density ([1]; 293.15 K): 784.9 ± 1 kg/m3
viscosity ([1]; 298.15 K): 2.095 ± 0.13 mPa·s
mass density ([1]; 298.15 K): 780.7 ± 1 kg/m3
viscosity ([1]; 303.15 K): 1.808 ± 0.11 mPa·s
mass density ([1]; 303.15 K): 776.4 ± 1 kg/m3
viscosity ([1]; 308.15 K): 1.567 ± 0.094 mPa·s
mass density ([1]; 308.15 K): 772.1 ± 1 kg/m3
viscosity ([1]; 313.15 K): 1.366 ± 0.082 mPa·s
mass density ([1]; 313.15 K): 767.6 ± 1 kg/m3
viscosity ([1]; 318.15 K): 1.195 ± 0.072 mPa·s
mass density ([1]; 318.15 K): 763.1 ± 1 kg/m3
viscosity ([1]; 323.15 K): 1.052 ± 0.064 mPa·s
mass density ([1]; 323.15 K): 758.5 ± 1 kg/m3

CC(C)O [propan-2-ol] + CCC(C)O
viscosity ([2]; 293.15 K, x2 = 0): 2.429 ± 0.15 mPa·s
mass density ([2]; 293.15 K, x2 = 0): 784.9 ± 1 kg/m3
viscosity ([2]; 298.15 K, x2 = 0): 2.095 ± 0.13 mPa·s
mass density ([2]; 298.15 K, x2 = 0): 780.7 ± 1 kg/m3
viscosity ([2]; 303.15 K, x2 = 0): 1.808 ± 0.11 mPa·s
mass density ([2]; 303.15 K, x2 = 0): 776.4 ± 1 kg/m3
viscosity ([2]; 308.15 K, x2 = 0): 1.567 ± 0.094 mPa·s
mass density ([2]; 308.15 K, x2 = 0): 772.1 ± 1 kg/m3
viscosity ([2]; 313.15 K, x2 = 0): 1.366 ± 0.082 mPa·s
mass density ([2]; 313.15 K, x2 = 0): 767.6 ± 1 kg/m3
viscosity ([2]; 318.15 K, x2 = 0): 1.195 ± 0.072 mPa·s
mass density ([2]; 318.15 K, x2 = 0): 763.1 ± 1 kg/m3
viscosity ([2]; 323.15 K, x2 = 0): 1.052 ± 0.064 mPa·s
mass density ([2]; 323.15 K, x2 = 0): 758.5 ± 1 kg/m3
